One series concerns the target T1, CCDC6-RET (Homo sapiens, UniProt P07949).
T1 construct: purchased SignalChem R02-19BG-05; the other entry of the earlier key: CCDC6 (Q16204, Coiled-coil domain-containing protein 6)
T1 sequence (P07949 with tags, fused parts or gaps): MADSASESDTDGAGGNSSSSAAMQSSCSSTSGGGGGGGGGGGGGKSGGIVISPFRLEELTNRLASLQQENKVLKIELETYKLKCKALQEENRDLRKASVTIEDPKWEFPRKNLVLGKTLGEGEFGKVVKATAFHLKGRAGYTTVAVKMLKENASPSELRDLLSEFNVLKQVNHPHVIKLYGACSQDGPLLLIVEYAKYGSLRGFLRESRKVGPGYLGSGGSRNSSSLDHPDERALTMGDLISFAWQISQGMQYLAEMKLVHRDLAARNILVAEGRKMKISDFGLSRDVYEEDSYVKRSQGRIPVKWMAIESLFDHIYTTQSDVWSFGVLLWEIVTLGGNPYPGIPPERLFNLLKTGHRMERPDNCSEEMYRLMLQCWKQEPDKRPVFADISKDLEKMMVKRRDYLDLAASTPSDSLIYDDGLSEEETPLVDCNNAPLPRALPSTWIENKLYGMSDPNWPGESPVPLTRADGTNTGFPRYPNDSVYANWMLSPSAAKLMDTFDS
Kind of series: HTRF kinase activity inhibition, CCDC6-RET. The class given is biochemical. Conditions: ATP at Km. The source says: (§1) 2.2 Experimental Reagents: • RET enzyme was purchased from Carna Company, and the article number was 08-159; • RET M918T enzyme was purchased from Carna Company, and the article number was 08-508; • KIF5B-RET was purchased from SignalChem Company, the article number was R02-19FG-05; • CCDC6-RET was purchased from SignalChem Company, the article number was R02-19BG-05; • RET V804M enzyme was purchased from Thermofisher Company, and the article number was PV6223; • RET V804L enzyme was purchased from Thermofisher Company, and the article number was PV4397; • HTRF KinEASE-TK kit was purchased from Cisbio Company, and the article number was 62TK0PEC; • ATP was purchased from Thermofisher Company, and the article number was PV3227; • 384-well plate was purchased from PerkinElmer Company, and the article number was 6007290.
(§2) In this experiment, a homogeneous time-resolved fluorescence (HTRF) method was used for the detection of compounds on RET kinase activity.

Another series has as its target T2, RET V804M (Homo sapiens, UniProt P07949, V804M).
T2 construct: purchased Thermofisher PV6223
Kind of series: HTRF kinase activity inhibition, RET V804M. The class given is biochemical. Conditions: ATP at Km.
Text: as §1, §2
(In general: In TR-FRET formats the signal depends on donor and acceptor labels being close together.)

Another series deals with T3, RET M918T (Homo sapiens, UniProt P07949, M918T).
T3 construct: purchased Carna 08-508
T3 sequence (P07949 29-1114 M918T): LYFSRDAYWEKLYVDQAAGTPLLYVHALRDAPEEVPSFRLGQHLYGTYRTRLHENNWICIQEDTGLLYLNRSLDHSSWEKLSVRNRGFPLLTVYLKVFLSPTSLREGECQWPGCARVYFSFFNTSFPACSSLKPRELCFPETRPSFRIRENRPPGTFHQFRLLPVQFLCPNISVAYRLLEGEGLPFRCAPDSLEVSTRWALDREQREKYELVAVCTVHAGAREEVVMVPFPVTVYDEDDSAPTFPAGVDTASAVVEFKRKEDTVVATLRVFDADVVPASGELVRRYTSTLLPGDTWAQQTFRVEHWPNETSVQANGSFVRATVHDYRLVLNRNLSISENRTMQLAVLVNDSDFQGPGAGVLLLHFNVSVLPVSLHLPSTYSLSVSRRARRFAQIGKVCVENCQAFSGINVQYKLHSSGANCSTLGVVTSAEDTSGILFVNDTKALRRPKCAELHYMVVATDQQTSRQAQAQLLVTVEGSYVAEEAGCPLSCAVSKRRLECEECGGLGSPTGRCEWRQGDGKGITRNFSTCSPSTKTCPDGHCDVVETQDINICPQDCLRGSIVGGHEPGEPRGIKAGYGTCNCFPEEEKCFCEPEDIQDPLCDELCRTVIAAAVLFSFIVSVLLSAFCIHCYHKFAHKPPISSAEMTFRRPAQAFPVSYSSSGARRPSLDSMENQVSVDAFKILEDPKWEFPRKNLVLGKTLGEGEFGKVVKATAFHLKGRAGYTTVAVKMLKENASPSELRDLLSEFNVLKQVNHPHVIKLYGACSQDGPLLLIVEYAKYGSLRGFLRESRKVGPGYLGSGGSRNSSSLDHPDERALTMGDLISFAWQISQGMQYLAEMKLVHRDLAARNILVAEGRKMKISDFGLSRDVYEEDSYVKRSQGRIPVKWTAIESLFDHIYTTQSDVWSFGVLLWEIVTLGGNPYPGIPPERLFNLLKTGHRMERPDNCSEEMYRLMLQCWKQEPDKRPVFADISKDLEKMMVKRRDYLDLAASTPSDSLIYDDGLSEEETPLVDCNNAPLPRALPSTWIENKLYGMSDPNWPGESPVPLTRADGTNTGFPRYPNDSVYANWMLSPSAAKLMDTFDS
The series can be described thus: HTRF kinase activity inhibition, RET M918T. Format: biochemical. Conditions: ATP at Km.
Text: as §1, §2

In the next series the target is T4, RET V804L (Homo sapiens, UniProt P07949, V804L).
T4 construct: purchased Thermofisher PV4397
T4 sequence (P07949 29-1114 V804L): as the sequence (P07949 29-1114 M918T) above, with V776L, T890M counted along it
Kind of series: HTRF kinase activity inhibition, RET V804L. Format: biochemical. Conditions: ATP at Km.
Text: as §1, §2

For another series, the target named is T5, KIF5B-RET (Homo sapiens, UniProt P07949).
T5 construct: purchased SignalChem R02-19FG-05; the other entry of the earlier key: KIF5B (P33176, Kinesin-1 heavy chain)
T5 sequence (P07949 with tags, fused parts or gaps): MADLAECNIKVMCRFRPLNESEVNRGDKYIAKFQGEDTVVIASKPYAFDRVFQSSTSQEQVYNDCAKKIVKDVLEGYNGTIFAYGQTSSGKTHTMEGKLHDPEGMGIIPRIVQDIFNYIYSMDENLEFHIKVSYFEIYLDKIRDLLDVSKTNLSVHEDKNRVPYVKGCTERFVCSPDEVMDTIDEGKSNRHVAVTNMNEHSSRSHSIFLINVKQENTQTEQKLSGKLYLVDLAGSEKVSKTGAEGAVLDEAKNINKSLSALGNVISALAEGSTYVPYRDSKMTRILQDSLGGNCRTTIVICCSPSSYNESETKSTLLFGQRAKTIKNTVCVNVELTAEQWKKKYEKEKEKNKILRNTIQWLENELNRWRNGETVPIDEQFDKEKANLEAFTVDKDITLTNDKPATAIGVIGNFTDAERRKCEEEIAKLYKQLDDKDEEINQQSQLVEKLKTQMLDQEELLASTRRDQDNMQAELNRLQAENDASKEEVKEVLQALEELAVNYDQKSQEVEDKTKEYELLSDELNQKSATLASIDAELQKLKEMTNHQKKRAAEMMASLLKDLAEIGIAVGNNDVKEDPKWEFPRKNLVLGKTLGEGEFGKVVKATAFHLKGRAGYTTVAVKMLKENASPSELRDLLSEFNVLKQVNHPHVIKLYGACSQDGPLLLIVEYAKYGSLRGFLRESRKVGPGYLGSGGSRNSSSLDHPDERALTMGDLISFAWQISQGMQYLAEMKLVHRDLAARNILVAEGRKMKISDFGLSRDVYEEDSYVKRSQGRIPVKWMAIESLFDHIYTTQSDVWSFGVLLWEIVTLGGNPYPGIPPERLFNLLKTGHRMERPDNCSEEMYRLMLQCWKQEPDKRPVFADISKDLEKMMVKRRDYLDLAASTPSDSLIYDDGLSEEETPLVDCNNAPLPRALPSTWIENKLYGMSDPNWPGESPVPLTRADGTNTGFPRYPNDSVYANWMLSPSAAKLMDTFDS
The series can be described thus: HTRF kinase activity inhibition, KIF5B-RET. The class given is biochemical. Conditions: ATP at Km.
Text: as §1, §2

The next series deals with T6, RET kinase (Homo sapiens, UniProt P07949).
T6 construct: purchased Carna 08-159
T6 sequence (P07949 29-1114): as the sequence (P07949 29-1114 M918T) above, with T890M counted along it
Kind of series: HTRF kinase activity inhibition, RET wild-type. Format: biochemical. The conditions noted are these: ATP at Km. The method in brief:
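HTRF (KinEASE-TK) kinase assay with recombinant RET wild-type, RET V804M, RET V804L and KIF5B-RET enzymes plus ATP.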

In another series the target is T7, KDR kinase (Homo sapiens, UniProt P35968).
T7 construct: purchased Carna 08-191
T7 sequence (P35968 20-1356): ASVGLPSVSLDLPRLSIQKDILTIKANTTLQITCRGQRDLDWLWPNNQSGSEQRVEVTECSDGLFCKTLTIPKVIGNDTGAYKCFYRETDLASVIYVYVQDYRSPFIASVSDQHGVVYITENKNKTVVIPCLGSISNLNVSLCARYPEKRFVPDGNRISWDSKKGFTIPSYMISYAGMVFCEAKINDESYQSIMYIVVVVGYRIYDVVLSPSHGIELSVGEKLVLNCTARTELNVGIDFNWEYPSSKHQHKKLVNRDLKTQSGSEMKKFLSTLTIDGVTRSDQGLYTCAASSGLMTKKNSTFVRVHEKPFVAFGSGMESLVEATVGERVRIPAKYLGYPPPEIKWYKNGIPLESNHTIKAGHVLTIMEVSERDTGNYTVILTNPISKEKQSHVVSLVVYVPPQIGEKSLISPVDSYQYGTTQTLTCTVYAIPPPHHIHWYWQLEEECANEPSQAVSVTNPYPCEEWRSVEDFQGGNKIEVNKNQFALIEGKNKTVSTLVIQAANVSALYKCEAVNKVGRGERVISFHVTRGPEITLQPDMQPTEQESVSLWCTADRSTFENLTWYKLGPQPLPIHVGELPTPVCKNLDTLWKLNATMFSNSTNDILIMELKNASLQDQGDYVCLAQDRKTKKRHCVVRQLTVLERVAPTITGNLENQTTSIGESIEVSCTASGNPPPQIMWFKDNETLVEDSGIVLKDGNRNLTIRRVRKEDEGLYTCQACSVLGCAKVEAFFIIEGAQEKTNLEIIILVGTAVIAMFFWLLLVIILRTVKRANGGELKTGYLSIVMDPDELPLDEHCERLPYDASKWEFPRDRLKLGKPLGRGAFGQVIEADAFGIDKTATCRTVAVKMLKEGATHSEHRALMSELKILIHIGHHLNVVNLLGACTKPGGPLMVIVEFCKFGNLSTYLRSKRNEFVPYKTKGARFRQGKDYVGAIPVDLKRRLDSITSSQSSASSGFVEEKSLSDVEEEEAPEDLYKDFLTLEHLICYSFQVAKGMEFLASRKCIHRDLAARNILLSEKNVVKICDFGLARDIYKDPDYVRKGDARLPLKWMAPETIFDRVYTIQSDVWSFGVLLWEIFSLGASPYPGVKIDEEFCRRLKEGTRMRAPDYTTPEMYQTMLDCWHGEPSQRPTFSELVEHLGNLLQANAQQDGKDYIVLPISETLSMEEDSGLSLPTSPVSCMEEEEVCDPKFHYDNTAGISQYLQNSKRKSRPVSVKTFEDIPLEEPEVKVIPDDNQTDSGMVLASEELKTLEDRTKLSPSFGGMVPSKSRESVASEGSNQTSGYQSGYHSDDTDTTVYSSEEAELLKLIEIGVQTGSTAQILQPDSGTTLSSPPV
Kind of series: HTRF kinase activity inhibition, KDR. The class given is biochemical. The method in brief:
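Inhibition of KDR kinase activity measured by homogeneous time-resolved fluorescence with a tyrosine-kinase KinEASE substrate kit and ATP.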

Series [1] has as its system TT cells (MTC, RET C634W). The series can be described thus: Inhibition of proliferation of TT cells (CellTiter-Glo, 72 h). The class given is cell-based. The conditions noted are these: Homo sapiens. The method in brief: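 TT cells seeded overnight, then exposed to compound dilutions for 72 h at 37 °C, 5% CO2, with a solvent control. Viability read by CellTiter-Glo luminescence; IC50 from nonlinear regression of inhibition rate versus concentration.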

Series [2] concerns subcutaneous transplanted tumor of Ba/F3 KIF5B-RET cells. The series can be described thus: Tumor suppression on Ba/F3 KIF5B-RET transplanted tumor model. Conditions: 10 mg/kg oral twice a day. The class given is in vivo, BALB/c nude mice. How it is done: Ba/F3 KIF5B-RET cells were removed from the cell bank, resuscitated and added to RPMI1640 medium (RPMI1640+10% FBS+1% Glu+1% P/S), then cultured in a CO2 incubator (incubator temperature was 37° C., CO2 concentration was 5%), and when the cell number expanded to the required number for in vivo inoculation, Ba/F3 KIF5B-RET cells were collected. The cells were counted with an automatic cell counter, resuspended with PBS according to the count results, made into a cell suspension (density was 2×10^7/mL), and placed in an ice box for use.
Female BALB/c nude mice aged 6-8 weeks were used, weighing about 18-22 g. Mice were reared in SPF animal room, and were reared in a single cage with 5 mice in each cage. All cages, bedding and water were sterilized at high temperature before use, and all animals were allowed to eat and drink freely. Nude mice were labeled with disposable universal ear tags for mice and rats before the start of the experiment, and the skin of the inoculation site was disinfected with 75% medical alcohol before inoculation. 0.1 mL (containing 2*10^6 cells) of Ba/F3 KIF5B-RET cells were inoculated subcutaneously on the right back of each mouse. Group administration was initiated when the tumor volume reached 60-200 mm^3, with 5 mice in each group. Each test compound was administered orally twice a day for 14 days. The tumor volume and the weight of mice were measured twice a week, and the tumor TGI (%) was calculated.
The tumor volume (mm^3) was calculated as V=0.5*D*d*d, where D and d were the long and short diameters of the tumor, respectively.
When there was no tumor regression, TGI (%)=[(1-(mean tumor volume at the end of the administration in a treatment group−mean tumor volume at the start of administration in the treatment group))/(mean tumor volume at the end of treatment in the solvent control group−mean tumor volume at the start of treatment in the solvent control group)]×100%.
When there was tumor regression, TGI (%)=[1-(mean tumor volume at the end of administration in a treatment group−mean tumor volume at the beginning of administration in the treatment group)/mean tumor volume at the beginning of administration in the treatment group]×100%.

A further series concerns the target T8, Ba/F3 KIF5B-RET cells (Homo sapiens, UniProt P07949).
T8 construct: fused on or other part: P33176 (Kinesin-1 heavy chain)
Kind of series: Inhibition of proliferation of Ba/F3 KIF5B-RET cells (CellTiter-Glo). Format: cell-based. The conditions noted are these: 72 to 144 hours. The method in brief:
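Cells plated overnight, then exposed to compound dilutions in DMSO/medium at 37° C, 5% CO2 for 72 to 144 hours. Viability read by CellTiter-Glo luminescence; IC50 from inhibition rates fitted by nonlinear regression.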
For orientation: Cellular ATP, detected with luciferase, serves as a proxy for viable cell number.

Series [3] in a line: Balb/C mouse pharmacokinetics, oral 5 mg/kg. The class given is in vivo, Balb/C mice. The conditions noted are these: male, p.o. 5 mg/kg, plasma. The method in brief: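 Male Balb/C mice (6 per compound) were fasted overnight and dosed in 0.5% CMC-Na (1% Tween80) solution or suspension. EDTA-K2 plasma was sampled at 0, 0.5, 1, 2, 4, 6, 8 and 24 h. Compound levels were measured by LC/MS/MS after acetonitrile precipitation, and PK parameters were derived from the plasma profiles.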

Each structure is given as a SMILES string.

T8 sequence (P07949 whole entry, change not shown, the tested form may be a part): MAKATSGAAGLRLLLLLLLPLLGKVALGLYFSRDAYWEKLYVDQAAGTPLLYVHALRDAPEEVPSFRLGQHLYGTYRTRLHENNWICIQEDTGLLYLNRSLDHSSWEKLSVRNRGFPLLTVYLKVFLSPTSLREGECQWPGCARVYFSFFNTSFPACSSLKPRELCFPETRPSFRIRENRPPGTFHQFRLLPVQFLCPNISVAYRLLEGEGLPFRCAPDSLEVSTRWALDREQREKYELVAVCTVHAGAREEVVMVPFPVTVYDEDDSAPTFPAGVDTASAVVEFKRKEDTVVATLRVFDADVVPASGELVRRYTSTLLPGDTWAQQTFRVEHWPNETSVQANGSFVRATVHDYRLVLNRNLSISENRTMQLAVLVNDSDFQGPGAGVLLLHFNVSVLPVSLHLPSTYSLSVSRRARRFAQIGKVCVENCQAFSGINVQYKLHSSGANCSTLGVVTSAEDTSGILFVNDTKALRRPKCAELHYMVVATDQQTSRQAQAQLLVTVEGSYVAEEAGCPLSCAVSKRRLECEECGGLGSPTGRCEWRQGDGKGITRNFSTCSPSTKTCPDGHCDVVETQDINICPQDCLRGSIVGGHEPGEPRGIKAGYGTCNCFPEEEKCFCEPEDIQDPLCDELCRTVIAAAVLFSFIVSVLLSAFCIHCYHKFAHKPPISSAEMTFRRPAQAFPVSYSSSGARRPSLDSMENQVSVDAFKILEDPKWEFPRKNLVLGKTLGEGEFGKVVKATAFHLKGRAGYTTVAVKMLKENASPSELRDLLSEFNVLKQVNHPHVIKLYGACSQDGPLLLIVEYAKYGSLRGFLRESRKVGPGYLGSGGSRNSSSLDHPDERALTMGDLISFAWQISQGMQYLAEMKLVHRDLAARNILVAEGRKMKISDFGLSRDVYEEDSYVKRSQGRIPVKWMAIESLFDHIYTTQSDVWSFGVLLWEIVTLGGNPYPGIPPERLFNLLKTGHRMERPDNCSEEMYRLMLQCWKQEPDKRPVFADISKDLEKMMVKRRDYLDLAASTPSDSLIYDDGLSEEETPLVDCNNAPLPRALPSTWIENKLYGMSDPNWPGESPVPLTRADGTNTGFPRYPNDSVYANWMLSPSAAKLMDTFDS
T2 sequence (P07949 29-1114 V804M): as the sequence (P07949 29-1114 M918T) above, with V776M, T890M counted along it

Usually IC50 stands for the concentration that inhibits the measured activity by half. With `CC1(NC(=O)c2ncccc2Cl)CCN(c2ccc(-c3cc(C#CC4(O)COC4)cn4ncc(C#N)c34)cn2)CC1` [Embodiment 97, 3-Chloro-N-(1-(5-(3-cyano-6-((3-hydroxyoxetan-3-yl)ethynyl)pyrazolo[1,5-a]pyridin-4-yl)pyridin-2-yl)-4-methylpiperidin-4-yl)picolinamide], the IC50 on CCDC6-RET was found to be 1.72 nM; against RET V804M, 1.1 nM; at RET M918T it was 0.37 nM; at RET V804L, 0.28 nM; against KIF5B-RET, 0.5 nM.
Usually MRT stands for a mean duration of stay, worked out from the concentration-time curve. Broadly, the Tmax is the time at which the peak concentration occurs. For the compound `COc1ccc(CN2C3CC2CN(c2ccc(-c4cc(N5CC(C(C)(C)O)C5)cn5ncc(C#N)c45)cn2)C3)cn1` [Embodiment 7, 6-(3-(2-Hydroxypropan-2-yl)azetidin-1-yl)-4-(6-(6-((6-methoxypyridin-3-yl)methyl)-3,6-diazabicyclo[3.1.1]heptan-3-yl)pyridin-3-yl)pyrazolo[1,5-a]pyridine-3-carbonitrile], the IC50 against RET kinase was found to be 0.69 nM; against RET M918T it was 1.06 nM; against KDR kinase (HTRF, ATP at Km), 11 nM; in series [1], 11 nM; on Ba/F3 KIF5B-RET cells, 13 nM. Further, on KDR kinase (KDR IC50 / RET IC50), the “Ratio (KDR/RET)” value is reported as 16. The “Tumor volume (Mean ± SD) Day 0” value in series [2] (Day 0) was 100.80 ± 31.28 mm^3. Also, in series [2] (Day 14), the “TGI (%) Day 14” value was determined as 90.82%. For the same compound, in series [2] (Day 14), the “Tumor volume (Mean ± SD) Day 14” value stood at 232.46 ± 133.65 mm^3. Also, the MRT in series [3] (read-out: Average residence time MRT) turned out to be 3.76 h. Further, in series [3] (read-out: Blood concentration Cmax), the Cmax amounted to 3280 ng/mL. Moreover, in series [3] (read-out: Curve area AUC0-t), the AUC(0-t) stood at 13800 ng·h/mL. Also, the AUC(0-inf) in series [3] (read-out: Curve area AUC0-∞) amounted to 13800 ng·h/mL. Also, the half-life in [3] (read-out: Half-life t1/2 (converted)) is 2.18 h. Moreover, the Tmax in series [3] (read-out: Peak time tmax) turned out to be 0.5 h.

Values taken from patent US20230406865A1, “CRYSTAL FORM OF FREE BASE OF INHIBITOR CONTAINING BICYCLIC RING DERIVATIVE AND PREPARATION METHOD AND APPLICATION OF CRYSTAL FORM” (SHANGHAI HANSOH BIOMEDICAL CO., LTD., priority 2020, published 2023).
